Consider four compounds from US10100331B2, “Reagent for gene-drug therapeutics” (Agency for Science, Technology and Research, priority 2012, dated 2018).

The term IC50 denotes the concentration needed to halve the response being measured.

In experiment [1] the target is HDAC1 (Homo sapiens, UniProt Q13547). The note with it: Targeted HDAC/Sirtuin: 1; cited from earlier work.
For experiment [2], the target named is HDAC2 (Homo sapiens, UniProt Q92769). The following applies: Targeted HDAC/Sirtuin: 2; cited from earlier work.
The target in experiment [3] is HDAC3 (Homo sapiens, UniProt O15379). The following applies: Targeted HDAC/Sirtuin: 3; cited from earlier work.
For experiment [4], the target named is T1, HDAC6 (Homo sapiens, UniProt Q9UBN7).
T1 sequence (Q9UBN7 1-1215): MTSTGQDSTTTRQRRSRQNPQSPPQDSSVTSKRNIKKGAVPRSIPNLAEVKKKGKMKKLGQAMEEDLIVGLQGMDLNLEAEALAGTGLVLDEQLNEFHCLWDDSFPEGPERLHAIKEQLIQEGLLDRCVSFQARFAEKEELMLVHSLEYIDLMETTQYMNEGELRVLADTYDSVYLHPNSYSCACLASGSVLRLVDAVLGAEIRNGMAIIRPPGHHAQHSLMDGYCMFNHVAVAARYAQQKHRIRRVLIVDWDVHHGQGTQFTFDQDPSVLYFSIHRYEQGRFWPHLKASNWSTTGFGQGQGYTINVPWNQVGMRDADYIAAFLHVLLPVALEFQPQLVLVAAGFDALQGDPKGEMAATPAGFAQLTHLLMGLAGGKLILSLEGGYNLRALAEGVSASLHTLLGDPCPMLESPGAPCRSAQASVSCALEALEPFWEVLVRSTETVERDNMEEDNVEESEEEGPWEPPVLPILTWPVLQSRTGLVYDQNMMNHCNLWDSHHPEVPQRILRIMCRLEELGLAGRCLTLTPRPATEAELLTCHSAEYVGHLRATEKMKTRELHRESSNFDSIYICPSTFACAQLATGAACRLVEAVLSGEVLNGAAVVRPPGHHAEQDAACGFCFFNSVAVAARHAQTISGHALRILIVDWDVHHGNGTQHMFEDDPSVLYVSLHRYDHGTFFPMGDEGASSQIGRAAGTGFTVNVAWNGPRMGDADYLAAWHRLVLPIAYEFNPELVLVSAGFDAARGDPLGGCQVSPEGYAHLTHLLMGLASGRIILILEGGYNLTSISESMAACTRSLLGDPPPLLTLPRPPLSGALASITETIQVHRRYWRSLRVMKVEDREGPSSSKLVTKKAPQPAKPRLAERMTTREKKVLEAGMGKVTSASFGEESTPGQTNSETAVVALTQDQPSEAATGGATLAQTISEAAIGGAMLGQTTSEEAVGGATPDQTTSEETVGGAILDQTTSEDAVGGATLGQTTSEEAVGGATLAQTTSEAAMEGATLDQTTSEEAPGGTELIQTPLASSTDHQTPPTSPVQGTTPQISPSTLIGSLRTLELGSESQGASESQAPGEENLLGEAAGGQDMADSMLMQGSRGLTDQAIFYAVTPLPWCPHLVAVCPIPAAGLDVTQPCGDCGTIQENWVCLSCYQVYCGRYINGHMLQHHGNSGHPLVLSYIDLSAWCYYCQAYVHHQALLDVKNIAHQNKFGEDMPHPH
The following applies: Targeted HDAC/Sirtuin: 6; cited from earlier work.

The target of experiment [5] is T2, HDAC8 (Homo sapiens, UniProt Q9BY41).
T2 sequence (Q9BY41 1-377): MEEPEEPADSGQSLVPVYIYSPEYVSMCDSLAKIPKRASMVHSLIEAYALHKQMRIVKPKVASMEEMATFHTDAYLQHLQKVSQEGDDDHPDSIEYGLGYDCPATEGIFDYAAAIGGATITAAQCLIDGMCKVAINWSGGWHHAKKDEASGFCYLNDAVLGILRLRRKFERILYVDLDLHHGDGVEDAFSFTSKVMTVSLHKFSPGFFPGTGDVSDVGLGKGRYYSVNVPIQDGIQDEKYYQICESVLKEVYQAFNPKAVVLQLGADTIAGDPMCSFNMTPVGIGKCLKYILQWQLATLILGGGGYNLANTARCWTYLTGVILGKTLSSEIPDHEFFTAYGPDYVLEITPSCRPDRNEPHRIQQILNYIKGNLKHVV
The following applies: Targeted HDAC/Sirtuin: 8; cited from earlier work.

The subject of experiment [6] is Neuro2A cells. Briefly: Transfection of Neuro2A cells with PKC inhibitor. The following applies: 2 μM, 45 min prior and after transfection; LPEI/pDNA N/P=20; 24 h. The experiment is classed as cell-based. As to the method: Neuro2A cells were treated with GÖ6983 (2 μM) for 45 min prior transfection. Transfection mixture (LPEI/pDNA at N/P=20) was replaced with DMEM containing 0.5% FBS and GÖ6983 (2 μM). Representative images (acquired 24 h post transfection) were shown.

Experiment [7] relates to KLF4 and c-Myc. Briefly: KLF4 and c-Myc expression in HaF (PCR). The experiment is classed as cell-based, human. The following applies: 1 mM VPA, up to 72 h. Here is the method: Fibroblast cells were treated with 1 mM VPA for up to 3 days. At the end of incubation, the cells were collected and subjected to PCR analysis. Cells with no exposure to VPA (3 days) serve as control. Graphs present fold change to control after normalization with GAPDH.

Sequence of HDAC3 (O15379 whole entry): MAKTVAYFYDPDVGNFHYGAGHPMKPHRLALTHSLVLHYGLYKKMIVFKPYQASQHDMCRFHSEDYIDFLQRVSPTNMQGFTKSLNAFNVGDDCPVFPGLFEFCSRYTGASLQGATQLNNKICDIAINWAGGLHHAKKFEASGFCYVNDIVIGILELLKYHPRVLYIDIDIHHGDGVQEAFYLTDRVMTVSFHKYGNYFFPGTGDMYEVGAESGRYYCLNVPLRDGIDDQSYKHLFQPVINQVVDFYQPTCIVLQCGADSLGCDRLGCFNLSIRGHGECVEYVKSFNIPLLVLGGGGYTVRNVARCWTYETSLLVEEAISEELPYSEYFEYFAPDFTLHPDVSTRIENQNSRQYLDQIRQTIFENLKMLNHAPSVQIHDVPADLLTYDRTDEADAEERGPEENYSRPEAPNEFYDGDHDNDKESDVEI
Sequence of HDAC3 (Q9Y618 395-489 partner limits assumed): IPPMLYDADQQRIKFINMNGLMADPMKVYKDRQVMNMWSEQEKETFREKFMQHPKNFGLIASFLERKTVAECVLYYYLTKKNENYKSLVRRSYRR
Sequence of HDAC1 (Q13547 whole entry, species assumed): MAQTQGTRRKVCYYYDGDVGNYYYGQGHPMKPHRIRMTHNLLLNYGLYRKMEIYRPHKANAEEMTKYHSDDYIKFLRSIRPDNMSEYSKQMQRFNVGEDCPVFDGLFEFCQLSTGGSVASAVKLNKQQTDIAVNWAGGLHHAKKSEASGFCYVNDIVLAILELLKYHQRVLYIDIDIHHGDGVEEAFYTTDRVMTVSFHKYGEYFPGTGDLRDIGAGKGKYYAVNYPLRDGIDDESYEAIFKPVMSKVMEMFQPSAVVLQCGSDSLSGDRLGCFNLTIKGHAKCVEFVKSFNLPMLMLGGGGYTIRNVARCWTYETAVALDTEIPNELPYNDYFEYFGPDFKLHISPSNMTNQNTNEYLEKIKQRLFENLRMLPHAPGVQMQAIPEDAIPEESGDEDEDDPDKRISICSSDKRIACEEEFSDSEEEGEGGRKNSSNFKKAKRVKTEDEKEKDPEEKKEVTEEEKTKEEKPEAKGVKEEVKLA
Sequence of HDAC2 (Q92769 whole entry): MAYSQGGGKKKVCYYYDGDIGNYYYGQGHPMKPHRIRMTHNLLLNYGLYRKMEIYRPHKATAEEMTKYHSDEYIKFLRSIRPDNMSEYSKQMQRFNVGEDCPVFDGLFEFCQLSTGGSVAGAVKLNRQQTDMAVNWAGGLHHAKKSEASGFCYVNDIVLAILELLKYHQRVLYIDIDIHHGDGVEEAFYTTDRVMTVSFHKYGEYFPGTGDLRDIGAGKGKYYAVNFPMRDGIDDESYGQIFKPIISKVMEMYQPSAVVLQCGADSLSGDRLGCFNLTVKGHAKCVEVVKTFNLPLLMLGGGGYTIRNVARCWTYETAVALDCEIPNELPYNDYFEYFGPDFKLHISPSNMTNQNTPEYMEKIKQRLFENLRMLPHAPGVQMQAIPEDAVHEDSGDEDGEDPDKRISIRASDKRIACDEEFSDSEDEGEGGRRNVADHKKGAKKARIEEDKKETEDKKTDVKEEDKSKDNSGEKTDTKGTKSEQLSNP

`Nc1ccccc1NC(=O)CCCCCCC(=O)Nc1ccccc1` [BML-210]: the IC50 is 15 µM in experiment [1], 10.9 µM in experiment [2] and 2.62 µM in experiment [3].

Take `CCCCOc1ccc(CC(=O)NO)cc1` [Bufexamac]: the IC50 in experiment [3] is 341 µM; in experiment [4] it was 10.7 µM; in experiment [5] it was 235 µM.

With `COc1ccc2c(c1)c(C1=C(c3c[nH]c4ccccc34)C(=O)NC1=O)cn2CCCN(C)C` [GÖ6983], the transfection result in experiment [6] is reported as “substantially reduced transfection”.

`CCCC(CCC)C(=O)O` [Valproic Acid]: the “expressions of cMyc and KLF4” value in experiment [7] was “Gradual increment”. Further, the IC50 in experiment [1] is 442 µM; in experiment [4], 11800 µM.
